In brackets after ≈: the same amount, converted by molar mass. Activity calls are given as the source filed them. No cut-off for these calls is given here.
Assays:
[1] = Antiproliferative activity against human DND41 cells assessed as inhibition of cell viability measured after 72 hrs by real-time IncuCyte proliferation analysis; format: functional, cell-based; conditions: DND41, 72 h
Staphylococcus aureus = test: Antibacterial activity against Staphylococcus aureus ATCC65385 assessed as growth inhibition after 20 hrs by broth microdilution method; format: functional
LN-229 = test: Antiproliferative activity against human LN-229 cells assessed as inhibition of cell viability measured after 72 hrs by colorimetric MTS viability assay; format: functional, cell-based; conditions: LN-229, 72 h
Listeria innocua = test: Antibacterial activity against Listeria innocua LMG11387 assessed as growth inhibition after 20 hrs by broth microdilution method; format: functional
[2] = Antiproliferative activity against human HAP1 cells assessed as inhibition of cell viability measured after 72 hrs by colorimetric MTS viability assay; format: functional, cell-based; conditions: HAP1, 72 h
Escherichia coli = test: Antibacterial activity against Escherichia coli ATCC47076 assessed as growth inhibition after 20 hrs by broth microdilution method; format: functional
HL-60 = test: cells; format: functional, cell-based; conditions: Homo sapiens, HL-60, 72 h
Description: Antiproliferative activity against human HL-60 cells assessed as inhibition of cell viability measured after 72 hrs by real-time IncuCyte proliferation analysis

K562 = test: cells; format: functional, cell-based; conditions: Homo sapiens, K562, 72 h
Description: Antiproliferative activity against human K562 cells assessed as inhibition of cell viability measured after 72 hrs by real-time IncuCyte proliferation analysis

[3] = tested on: Salmonella enterica subsp. enterica; test: Antibacterial activity against Salmonella enterica subsp.enterica ATCC13076 assessed as growth inhibition after 20 hrs by broth microdilution method; format: functional
Z-138 = test: cells; format: functional, cell-based; conditions: Homo sapiens, Z-138, 72 h
Description: Antiproliferative activity against human Z138 cells assessed as inhibition of cell viability measured after 72 hrs by real-time IncuCyte proliferation analysis

HCT-116 = test: Antiproliferative activity against human HCT-116 cells assessed as inhibition of cell viability measured after 72 hrs by colorimetric MTS viability assay; format: functional, cell-based; conditions: HCT-116, 72 h
CAPAN-1 = test: cells; format: functional, cell-based; conditions: Homo sapiens, CAPAN-1, 72 h
Description: Antiproliferative activity against human CAPAN-1 cells assessed as inhibition of cell viability measured after 72 hrs by colorimetric MTS viability assay

NCI-H460 = test: cells; format: functional, cell-based; conditions: Homo sapiens, NCI-H460, 72 h
Description: Antiproliferative activity against human NCI-H460 cells assessed as inhibition of cell viability measured after 72 hrs by colorimetric MTS viability assay

MV4-11 = test: cells; format: functional, cell-based; conditions: Homo sapiens, MV4-11, 72 h
Description: Cytotoxicity against human MV4-11cells assessed as inhibition of cell viability measured after 72 hrs by real-time IncuCyte proliferation analysis

Rec1 = test: cells; format: functional, cell-based; conditions: Homo sapiens, Rec1, 72 h
Description: Cytotoxicity against human REC1 cells assessed as inhibition of cell viability measured after 72 hrs by real-time IncuCyte proliferation analysis

Jurkat = test: cells; format: functional, cell-based; conditions: Homo sapiens, 72 h
Description: Cytotoxicity against human Jurkat cells assessed as inhibition of cell viability measured after 72 hrs by real-time IncuCyte proliferation analysis

MIC50 (Staphylococcus aureus) | MIC50 (Listeria innocua) | MIC50 (Escherichia coli) | IC50 (HL-60) | IC50 (K562) | MIC50 [3] | IC50 (Z-138) | IC50 (HCT-116) | IC50 (CAPAN-1) | IC50 (NCI-H460) | IC50 (MV4-11) | IC50 (Rec1) | IC50 (Jurkat) | Compound | IC50 [1] | IC50 (LN-229) | IC50 [2]
inactive | inactive | 56.7 µg/mL (≈ 98.8 µM) | > 100 µM | > 100 µM | 48.1 µg/mL (≈ 83.8 µM) | > 100 µM | > 100 µM | > 100 µM | > 100 µM | – | – | – | C=C(C)[C@@H]1CC[C@]2(CO)CC[C@]3(C)[C@H](CC[C@@H]4[C@@]5(C)Cc6nnn(Cc7ccc(F)cc7)c6C(C)(C)[C@@H]5CC[C@]43C)[C@@H]12 | > 100 µM | > 100 µM | 10.3 µM
1.56 µg/mL (≈ 3.42 µM) | 27 µg/mL (≈ 59.2 µM) | inactive | 9.5 µM | 10.2 µM | inactive | 9.8 µM | 17.7 µM | 8.6 µM | 16.2 µM | – | – | – | C[C@H]1[C@H](C)CC[C@]2(C(=O)O)CC[C@]3(C)C(=CC[C@@H]4[C@@]5(C)CC[C@H](O)C(C)(C)[C@@H]5CC[C@]43C)[C@H]12 [URSOLIC ACID] | 13.7 µM | 47.4 µM | 71.1 µM
60.5 µg/mL (≈ 99.3 µM) | 74.4 µg/mL (≈ 122 µM) | inactive | 3.3 µM | 53.7 µM | inactive | 10.3 µM | 11 µM | 2.6 µM | 7.9 µM | 12.6 µM | 4.9 µM | 5.2 µM | C[C@H]1[C@H](C)CC[C@]2(C(=O)O)CC[C@]3(C)C(=CC[C@@H]4[C@@]5(C)Cc6nnn(Cc7ccc8cc[nH]c8c7)c6C(C)(C)[C@@H]5CC[C@]43C)[C@H]12 | 13.9 µM | 32.2 µM | 2.3 µM
3.41 µg/mL (≈ 10.3 µM) | 138 µg/mL (≈ 416 µM) | – | – | – | 0.37 µg/mL (≈ 1.12 µM) | – | – | – | – | – | – | – | O=C(O)c1cn(C2CC2)c2cc(N3CCNCC3)c(F)cc2c1=O [CIPROFLOXACIN] | – | – | –
inactive | inactive | > 20.9 µg/mL | > 100 µM | > 100 µM | 16.6 µg/mL (≈ 27.3 µM) | > 100 µM | > 100 µM | > 100 µM | > 100 µM | – | – | – | C=C(C)[C@@H]1CC[C@]2(CO)CC[C@]3(C)[C@H](CC[C@@H]4[C@@]5(C)Cc6nnn(CCc7c[nH]c8ccccc78)c6C(C)(C)[C@@H]5CC[C@]43C)[C@@H]12 | > 100 µM | > 100 µM | > 100 µM
233 µg/mL (≈ 392 µM) | 195 µg/mL (≈ 328 µM) | 84.7 µg/mL (≈ 142 µM) | > 100 µM | > 100 µM | 43 µg/mL (≈ 72.3 µM) | > 100 µM | > 100 µM | > 100 µM | > 100 µM | – | – | – | C=C(C)[C@@H]1CC[C@]2(CO)CC[C@]3(C)[C@H](CC[C@@H]4[C@@]5(C)Cc6nnn(Cc7ccc8cc[nH]c8c7)c6C(C)(C)[C@@H]5CC[C@]43C)[C@@H]12 | > 100 µM | > 100 µM | > 100 µM
inactive | 379 µg/mL (≈ 636 µM) | 99.8 µg/mL (≈ 168 µM) | > 100 µM | > 100 µM | 55.5 µg/mL (≈ 93.3 µM) | > 100 µM | > 100 µM | > 100 µM | > 100 µM | – | – | – | C=C(C)[C@@H]1CC[C@]2(CO)CC[C@]3(C)[C@H](CC[C@@H]4[C@@]5(C)Cc6nnn(Cc7cccc8[nH]ccc78)c6C(C)(C)[C@@H]5CC[C@]43C)[C@@H]12 | > 100 µM | > 100 µM | > 100 µM
180 µg/mL (≈ 298 µM) | 367 µg/mL (≈ 608 µM) | 34.3 µg/mL (≈ 56.7 µM) | 56 µM | > 100 µM | 25.2 µg/mL (≈ 41.8 µM) | 61.5 µM | 63.8 µM | 25.8 µM | > 100 µM | – | – | – | CC1(C)CC[C@]2(C(=O)O)CC[C@]3(C)C(=CC[C@@H]4[C@@]5(C)Cc6nnn(Cc7ccc(Cl)cc7)c6C(C)(C)[C@@H]5CC[C@]43C)[C@@H]2C1 | 64.3 µM | 67.1 µM | > 100 µM
1.16 µg/mL (≈ 2.54 µM) | 21.4 µg/mL (≈ 46.7 µM) | 392 µg/mL (≈ 859 µM) | 36.4 µM | > 100 µM | inactive | > 100 µM | 32.4 µM | 50.1 µM | > 100 µM | – | – | – | CC1(C)CC[C@]2(C(=O)O)CC[C@]3(C)C(=CC[C@@H]4[C@@]5(C)CC[C@H](O)C(C)(C)[C@@H]5CC[C@]43C)[C@@H]2C1 [OLEANOLIC_ACID] | 65.5 µM | > 100 µM | > 100 µM
345 µg/mL (≈ 580 µM) | 187 µg/mL (≈ 315 µM) | 96.3 µg/mL (≈ 162 µM) | > 100 µM | > 100 µM | 62 µg/mL (≈ 104 µM) | > 100 µM | > 100 µM | > 100 µM | > 100 µM | – | – | – | C=C(C)[C@@H]1CC[C@]2(CO)CC[C@]3(C)[C@H](CC[C@@H]4[C@@]5(C)Cc6nnn(Cc7ccc8[nH]ccc8c7)c6C(C)(C)[C@@H]5CC[C@]43C)[C@@H]12 | > 100 µM | > 100 µM | > 100 µM
23.1 µg/mL (≈ 38 µM) | 51.3 µg/mL (≈ 84.2 µM) | 409 µg/mL (≈ 672 µM) | 2.7 µM | > 100 µM | inactive | 10.1 µM | 15.6 µM | 3.6 µM | 9.2 µM | 14.1 µM | 2.8 µM | 4.1 µM | C[C@H]1[C@H](C)CC[C@]2(C(=O)O)CC[C@]3(C)C(=CC[C@@H]4[C@@]5(C)Cc6nnn(Cc7cccc8[nH]ccc78)c6C(C)(C)[C@@H]5CC[C@]43C)[C@H]12 | 10.1 µM | 63.5 µM | 8.8 µM
inactive | 429 µg/mL (≈ 672 µM) | 17.7 µg/mL (≈ 27.7 µM) | > 100 µM | > 100 µM | 17.3 µg/mL (≈ 27 µM) | > 100 µM | > 100 µM | > 100 µM | > 100 µM | – | – | – | C=C(C)[C@@H]1CC[C@]2(CO)CC[C@]3(C)[C@H](CC[C@@H]4[C@@]5(C)Cc6nnn(CCc7c[nH]c8ccc(OC)cc78)c6C(C)(C)[C@@H]5CC[C@]43C)[C@@H]12 | > 100 µM | > 100 µM | > 100 µM
inactive | inactive | 70.6 µg/mL (≈ 121 µM) | > 100 µM | > 100 µM | 32.3 µg/mL (≈ 55.1 µM) | > 100 µM | > 100 µM | > 100 µM | > 100 µM | – | – | – | C=C(C)[C@@H]1CC[C@]2(CO)CC[C@]3(C)[C@H](CC[C@@H]4[C@@]5(C)Cc6nnn(Cc7ccc(OC)cc7)c6C(C)(C)[C@@H]5CC[C@]43C)[C@@H]12 | > 100 µM | > 100 µM | > 100 µM

Compound | MIC50 (Staphylococcus aureus) | MIC50 (Listeria innocua) | MIC50 (Escherichia coli) | IC50 (HL-60) | IC50 (K562) | MIC50 [3] | IC50 (Z-138) | IC50 (HCT-116) | IC50 (CAPAN-1) | IC50 (NCI-H460) | IC50 (MV4-11) | IC50 (Rec1) | IC50 (Jurkat) | IC50 [1] | IC50 (LN-229) | IC50 [2]
CN[C@@H]1C[C@H]2O[C@@](C)([C@@H]1OC)n1c3ccccc3c3c4c(c5c6ccccc6n2c5c31)C(=O)NC4 [STAUROSPORINE] | – | – | – | – | – | – | – | 0.0481 µM | – | – | – | – | – | 0.0308 µM | 0.0097 µM | 0.0491 µM
C=C(C)[C@@H]1CC[C@]2(CO)CC[C@]3(C)[C@H](CC[C@@H]4[C@@]5(C)CC[C@H](O)C(C)(C)[C@@H]5CC[C@]43C)[C@@H]12 [BETULIN] | 248 µg/mL (≈ 559 µM) | 398 µg/mL (≈ 899 µM) | inactive | > 100 µM | > 100 µM | inactive | > 100 µM | > 100 µM | > 100 µM | > 100 µM | – | – | – | > 100 µM | > 100 µM | > 100 µM
